Source: BindingDB's records for doi:10.1016/s0960-894x(00)00323-1 (The University of Newcastle, 2000)

Molecular target: Protein phosphatase 1 catalytic subunit (PP1)
Assay: Inhibitory activity against recombinant Protein phosphatase 1

| SMILES | IC50 [µM] |
| --- | --- |
| COC1OC(=O)[C@H]2[C@@H]1[C@@H]1CC[C@H]2O1 (stereo partly drawn) [(1R,2S,6R,7S)-5-Methoxy-4,10-dioxa-tricyclo[5.2.1.0*2,6*]decan-3-one] | > 1000 |
| CCOC(=O)C1C(C(=O)O)[C@@H]2CC[C@H]1O2 (stereo partly drawn) [(1R,4S)-7-Oxa-bicyclo[2.2.1]heptane-2,3-dicarboxylic acid monoethyl ester] | 2.96 |
